Source: paper PMC11972452 (ACS infectious diseases, 2024)

Biological target: OXA-58 (Acinetobacter baumannii, UniProt Q2TR58)
Assay: time-resolved X-ray crystallography of the acyl-enzyme complex
Type: biochemical
Details: read-out: Ki

Chain of OXA-58 (Q2TR58 19-280): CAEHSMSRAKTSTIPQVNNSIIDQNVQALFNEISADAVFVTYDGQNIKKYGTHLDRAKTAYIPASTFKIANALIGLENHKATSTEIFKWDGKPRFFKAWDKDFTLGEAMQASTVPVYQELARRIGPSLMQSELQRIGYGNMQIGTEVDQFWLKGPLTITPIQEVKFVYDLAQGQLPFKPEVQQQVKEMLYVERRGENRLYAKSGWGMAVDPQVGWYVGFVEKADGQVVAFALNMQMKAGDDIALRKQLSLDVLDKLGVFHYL

CC(O)[C@H]1C(=O)N2C(C(=O)O)=C(S[C@H]3CNC(C(=O)N(C)C)C3)C[C@]12C (stereo partly shown) [NA-1-157, NA-1–157]
KI (inactivation): 1.9 ± 0.3 µM
